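Five compound concentrations were applied to cells in 96-well plates for 48 hours; endpoints were derived by simple linear interpolation of the resulting dose-response curve. At the GI50, growth is halved.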 Calls of active or inactive are those of the source. Cut-off read from the data, not from the text of the source: active = GI50 up to about 1.1 µM and inactive = higher.
What was measured:
Assay in all cases: growth of human tumour cells (NCI), 48 h
MOLT-4 = tested on: MOLT-4
CAKI-1 = tested on: CAKI-1
OVCAR-5 = tested on: OVCAR-5
UO-31 = tested on: UO-31
MDA-MB-435 = tested on: MDA-MB-435
SNB-19 = tested on: SNB-19
SF-539 = tested on: SF-539
T47D = tested on: T47D
BT-549 = tested on: BT-549
RXF 393 = tested on: RXF 393
HOP-62 = tested on: HOP-62
K562 = tested on: K562
OVCAR-3 = tested on: OVCAR-3
EKVX = tested on: EKVX
UACC-257 = tested on: UACC-257
SK-OV-3 = tested on: SK-OV-3
SF-268 = tested on: SF-268
SN12C = tested on: SN12C
MDA-N = tested on: MDA-N
U-251 = tested on: U-251

Measured: GI50

OC(c1nc2ccccc2[nH]1)C(O)C(O)C(O)c1nc2ccccc2[nH]1 (stereo not given)
inactive: MOLT-4 > 100 µM | CAKI-1 > 100 µM | OVCAR-5 > 100 µM | UO-31 > 100 µM | MDA-MB-435 > 100 µM | SNB-19 > 100 µM | SF-539 > 100 µM | T47D > 100 µM | BT-549 > 100 µM | RXF 393 > 100 µM | HOP-62 > 100 µM | K562 > 100 µM | OVCAR-3 > 100 µM | EKVX > 100 µM | UACC-257 > 100 µM | SK-OV-3 > 100 µM | SF-268 > 100 µM | SN12C > 100 µM | MDA-N > 100 µM | U-251 > 100 µM

CCOc1ccc(NC(=O)C(=O)C(/C(=N/N)C(=O)OC)c2nc3ccc([N+](=O)[O-])cc3nc2O)cc1 (stereo not given)
inactive: MOLT-4 > 100 µM | CAKI-1 > 100 µM | OVCAR-5 > 100 µM | UO-31 > 100 µM | MDA-MB-435 > 100 µM | SNB-19 > 100 µM | SF-539 > 100 µM | T47D > 100 µM | BT-549 > 100 µM | RXF 393 36.1 µM | HOP-62 > 100 µM | K562 > 100 µM | OVCAR-3 > 100 µM | EKVX > 100 µM | UACC-257 > 100 µM | SK-OV-3 > 100 µM | SF-268 > 100 µM | SN12C > 100 µM | MDA-N > 100 µM | U-251 > 100 µM

From ChEMBL document CHEMBL1201862, “PubChem BioAssay data set” (2004)
